Assays:
α2 GABAA receptors = target: T1, α2 GABAA receptors (Mus musculus, UniProt P22723+P26048); assay: α-Me-5HT-induced itch (cheek injection) in RHRR triple point-mutated mice (α2 only); format: in vivo, mice (129X1/SvJ genetic background)
T1 construct: endogenous in cells; host or cells: living RHRR triple point-mutated mice (129X1/SvJ)
Method: (§1) Because mice of this particular genetic background (129SvJ) have not yet been systematically analyzed in itch experiments, the inventors first assessed the sensitivity of these mice to a battery of pruritogens injected into the right cheek.
(§2) Acute itch was assessed in mice that received intradermal microinjections of pruritogens or 0.9% saline into the right cheek, which had been shaved at least one day before the experiment. In two sets of experiments that addressed the contribution of GABAARs in primary and secondary pruritoceptors, pruritogens were injected in the right thigh (FIG. 17). Before injection, mice were acclimatized to a 15 cm diameter cylindrical enclosure for more than 30 min with cage bedding on the ground. Background white noise generated by a radio in the room at ambient volume was applied to prevent auditory distraction. […] Videos were analyzed off-line. Scratching of the hind paw directed to the ipsilateral cheek was counted in bouts, with one scratching bout defined as an instance when the mouse lifted its paw to scratch until it returned the paw to the cage floor. In case of experiments in which the pruritogen was injected in the skin of the thigh, the time spent biting the injected skin area was counted in s/min as a measure of itch.

α3 GABAA receptors = target: T2, α3 GABAA receptors (Mus musculus, UniProt P22723+P26049); assay: α-Me-5HT-induced itch (cheek injection) in RRHR triple point-mutated mice (α3 only); format: in vivo, mice (129X1/SvJ genetic background)
T2 construct: endogenous in cells; host or cells: living RRHR triple point-mutated mice (129X1/SvJ)
Method: as §1, §2

[1] = test system: α2, α3 or α5 GABAA receptors; assay: oxazolone contact dermatitis model of chronic itch in GABAAR triple point-mutated mice; format: in vivo, mice (129X1/SvJ genetic background); details: 10 mg/kg i.p. on day 18; recorded 4 hours after injection
α5 GABAA receptors = target: T3, α5 GABAA receptors (Mus musculus, UniProt P22723+Q8BHJ7); assay: α-Me-5HT-induced itch (cheek injection) in RRRH triple point-mutated mice (α5 only); format: in vivo, mice (129X1/SvJ genetic background); details: DZP 10 mg/kg per oral 1 h before 20 μg α-Me-5HT, 20 min
T3 construct: endogenous in cells; host or cells: living triple point-mutated mice with only α5 diazepam-sensitive
Method: as §1, §2

[2] = test system: contact dermatitis-induced chronic itch; assay: oxazolone contact dermatitis model of chronic itch in wild-type mice; format: in vivo, wild-type C57BL6/J mice; details: 10 mg/kg i.p. on day 18; 15 to 210 min after injection
Method: Thus, TPA023B is, in accordance with the other findings of the inventors, suitable as an antipruritic substance.
This was independent of the treatment they received from day 7 to day 27.
The inventors sought to confirm the antipruritic efficacy of α2 and α3 GABAA receptor agonists against contact dermatitis-induced chronic itch. To this end, N-desmethyl clobazam, a benzodiazepine with improved activity at α2 versus α1 was assessed for its antipruritic effects (Jensen et al. PLoS One. 2014 Feb. 12; 9(2):e88456.).
Chronic itch was investigated in the contact dermatitis model (Kido-Nakahara, M., et al. J Clin Invest, 2014, 124, 2683-2695). Mice were treated once with 10% oxazolone in acetone/olive oil (4:1 v/v) on the shaved nape of the neck (100 μl) on day 0. After a resting period of 7 days, mice were treated with 1% oxazolone in acetone/olive oil (4:1 v/v) on the nape of the neck (100 μl) every other day for 10 days. On the day of the experiment, mice were injected with drug or vehicle i.p. under short and light isoflurane anesthesia. […]

α3 GABAA receptor = target: T4, α3 GABAA receptor (Mus musculus, UniProt P22723+P26049, H154R); assay: α-Me-5HT-induced itch in HHRH mice (α3-GABAAR DZP-insensitive); format: in vivo; details: 10 mg/kg per oral 1 h before 20 μg α-Me-5HT; 20 min
T4 construct: endogenous in cells; host or cells: living HHRH single point-mutated mice (knock-in)
Method: Wild-type and GABAAR single point mutated mice in which only α3 is rendered DZP-insensitive (HHRH mice) received per oral injection of 10 mg/kg TP003 or vehicle. One hour after injection, the mice received a 20 μg α-Me-5HT cheek injection to elicit itching. Over the course of twenty minutes scratching bouts directed at the ipsilateral cheek were recorded and TP003 injected mice compared with vehicle injected control mice (FIGS. 8A & 8B).
as §2, with “ground.” for “ground. Background white noise generated by a radio in the room at ambient volume was applied to prevent auditory distraction.”

α-Me-5HT-induced itch = assay: α-methyl 5-HT-induced itch (cheek injection) in wild-type mice; format: in vivo, wild-type mice (129X1/SvJ)
[3] = test system: brain membranes prepared from α1,2,3,5 H→R point mutated mice; format: binding, mice (RRRR); details: 4 nM [3H]Ro 15-4513; increasing concentrations; n=4
Method: The supernatant was centrifuged for 20 min at 30,000 g and the resulting crude membrane pellet was washed once with buffer. […] Non-specific [^3H]Ro 15-4513 binding was assessed by addition of 10 μM flumazenil to the reaction. Incubation was stopped by rapid vacuum filtration using a semiautomatic cell harvester (Skatron Instruments) and washed filters were subjected to liquid scintillation counting.

chloroquine-induced itch = chloroquine-induced itch (cheek injection) in wild-type mice; format: in vivo, wild-type C57BL6/J mice; details: 30 mg/kg intraperitoneal; 100 μg chloroquine; 30 min
Method: as §2, with “distraction. A 30 gauge needle was inserted bevel-up and pushed 5 mm horizontally into the skin beyond the point of insertion, before injection of the pruritogen (in a total volume of 10 μl). No anesthesia was used. Correct injection was confirmed by the appearance of a slightly domed bulla upon injection.” for “distraction.”

T2 sequence (P26049 29-492): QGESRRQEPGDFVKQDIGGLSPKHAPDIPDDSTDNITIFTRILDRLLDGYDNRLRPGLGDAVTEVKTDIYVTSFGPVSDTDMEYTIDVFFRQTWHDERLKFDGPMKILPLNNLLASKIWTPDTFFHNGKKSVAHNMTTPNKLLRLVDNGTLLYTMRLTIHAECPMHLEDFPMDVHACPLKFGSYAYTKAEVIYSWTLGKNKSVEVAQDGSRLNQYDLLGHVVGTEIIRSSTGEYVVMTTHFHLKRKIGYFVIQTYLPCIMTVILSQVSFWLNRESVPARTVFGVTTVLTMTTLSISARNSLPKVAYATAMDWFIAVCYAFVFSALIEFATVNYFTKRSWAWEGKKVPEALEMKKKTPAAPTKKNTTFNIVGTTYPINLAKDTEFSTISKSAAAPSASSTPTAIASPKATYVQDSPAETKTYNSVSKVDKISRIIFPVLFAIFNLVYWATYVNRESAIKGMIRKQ
T2 sequence (P63080 26-473 partner): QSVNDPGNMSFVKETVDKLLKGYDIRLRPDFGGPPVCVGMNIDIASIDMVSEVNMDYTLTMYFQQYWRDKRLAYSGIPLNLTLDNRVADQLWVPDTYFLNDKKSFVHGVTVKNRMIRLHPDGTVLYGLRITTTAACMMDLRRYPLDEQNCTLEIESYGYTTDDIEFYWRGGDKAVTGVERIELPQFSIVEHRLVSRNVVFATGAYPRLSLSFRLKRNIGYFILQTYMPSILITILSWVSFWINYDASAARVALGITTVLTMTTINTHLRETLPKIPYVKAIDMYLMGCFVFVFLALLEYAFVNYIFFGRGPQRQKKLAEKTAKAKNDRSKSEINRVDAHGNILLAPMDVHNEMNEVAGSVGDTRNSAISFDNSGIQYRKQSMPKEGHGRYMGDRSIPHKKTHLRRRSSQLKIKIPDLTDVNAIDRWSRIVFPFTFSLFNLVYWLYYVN
T2 sequence (P22723 39-474): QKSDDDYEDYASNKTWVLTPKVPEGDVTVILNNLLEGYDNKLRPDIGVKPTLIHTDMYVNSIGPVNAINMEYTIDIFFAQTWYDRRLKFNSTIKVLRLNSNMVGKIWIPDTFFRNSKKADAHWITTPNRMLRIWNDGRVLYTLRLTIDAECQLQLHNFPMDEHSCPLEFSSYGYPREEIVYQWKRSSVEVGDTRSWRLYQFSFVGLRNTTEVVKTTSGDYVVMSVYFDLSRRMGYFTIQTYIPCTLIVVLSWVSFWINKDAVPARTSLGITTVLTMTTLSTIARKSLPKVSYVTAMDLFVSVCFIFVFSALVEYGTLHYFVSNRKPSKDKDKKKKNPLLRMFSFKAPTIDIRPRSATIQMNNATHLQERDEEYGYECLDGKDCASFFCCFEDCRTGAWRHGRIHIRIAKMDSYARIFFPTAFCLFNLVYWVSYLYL
T1 sequence (P26048 29-451): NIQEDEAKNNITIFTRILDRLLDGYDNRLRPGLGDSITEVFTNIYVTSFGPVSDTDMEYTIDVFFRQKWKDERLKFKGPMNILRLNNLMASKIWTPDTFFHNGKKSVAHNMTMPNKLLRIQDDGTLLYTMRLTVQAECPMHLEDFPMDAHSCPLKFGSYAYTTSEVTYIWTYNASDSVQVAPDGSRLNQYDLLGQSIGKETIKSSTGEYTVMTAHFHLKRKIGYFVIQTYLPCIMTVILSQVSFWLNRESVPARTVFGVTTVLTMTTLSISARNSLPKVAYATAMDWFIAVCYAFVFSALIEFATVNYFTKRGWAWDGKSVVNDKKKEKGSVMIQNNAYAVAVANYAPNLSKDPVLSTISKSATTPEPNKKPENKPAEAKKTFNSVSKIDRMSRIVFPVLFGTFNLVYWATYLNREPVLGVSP
T1 sequence (P63080 26-473 partner): as the sequence (P63080 26-473 partner) above
T1 sequence (P22723 39-474): as the sequence (P22723 39-474) above
T4 sequence (P26049 29-492 H154R): as the sequence (P26049 29-492) above, with H126R counted along it
T4 sequence (P63080 26-473 partner): as the sequence (P63080 26-473 partner) above
T4 sequence (P22723 39-474): as the sequence (P22723 39-474) above
T3 sequence (Q8BHJ7 32-463 limits assumed): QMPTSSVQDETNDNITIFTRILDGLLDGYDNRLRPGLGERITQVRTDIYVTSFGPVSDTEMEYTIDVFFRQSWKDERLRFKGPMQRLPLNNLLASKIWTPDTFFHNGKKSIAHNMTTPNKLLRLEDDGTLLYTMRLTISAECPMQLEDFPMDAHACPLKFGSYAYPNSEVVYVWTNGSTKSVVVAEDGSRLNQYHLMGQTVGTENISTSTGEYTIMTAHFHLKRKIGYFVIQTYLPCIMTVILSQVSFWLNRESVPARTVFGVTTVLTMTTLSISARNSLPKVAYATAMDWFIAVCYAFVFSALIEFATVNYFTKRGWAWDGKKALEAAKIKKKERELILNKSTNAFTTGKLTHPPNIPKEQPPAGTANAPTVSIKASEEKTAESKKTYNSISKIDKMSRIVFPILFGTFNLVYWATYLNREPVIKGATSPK
T3 sequence (P63080 26-473 partner): as the sequence (P63080 26-473 partner) above
T3 sequence (P22723 39-474): as the sequence (P22723 39-474) above

CN1C(=O)CN=C(c2ccccc2)c2cc(Cl)ccc21 [DZP, Diazepam]
scratching bouts directed at the ipsilateral cheek vs vehicle (α2 GABAA receptors; RHRR mice (α2 only), DZP 10 mg/kg per oral 1 h before 20 μg α-Me-5HT, 20 min): significant reduction of scratching bouts
dose-response of scratching bouts (α2 GABAA receptors; RHRR mice, 0.1, 0.3, 1, 3, 10 and 30 mg/kg per oral 1 h before 20 μg α-Me-5HT, 30 min): dose-dependent reduction of scratching bouts
dose-dependence of antipruritic effects (α3 GABAA receptors; RRHR mice (FIG. 2C), oral DZP 1 h before 20 μg α-Me-5HT): dose-dependent antipruritic effects
scratching bouts directed at the ipsilateral cheek vs vehicle (α3 GABAA receptors; RRHR mice (α3 only), DZP 10 mg/kg per oral 1 h before 20 μg α-Me-5HT, 20 min): significant reduction of scratching bouts
number of scratching bouts directed at the nape of the neck vs vehicle [1]: significant reduction in the number of scratching bouts
scratching bouts directed at the ipsilateral cheek vs vehicle (α5 GABAA receptors): no significant reduction in scratching bouts

O=C1CC(=O)N(c2ccccc2)c2cc(Cl)ccc2N1 [NDMC, N-desmethyl clobazam]
scratching bouts directed at the nape of the neck vs vehicle [2]: significant reduction in scratching bouts

CC(C)(O)c1ccn2c(-c3ccc(F)c(-c4ccc(F)cc4C#N)c3)cnc2c1F [TP003, 4,2′-difluoro-5′-[8-fluoro-7-(1-hydroxy-1-methylethyl)imidazo[1,2-a]pyridin-3-yl]biphenyl-2-carbonitrile]
antipruritic effect in HHRH mice (α3 GABAA receptor): absent
scratching bouts directed at the ipsilateral cheek vs vehicle (α-Me-5HT-induced itch; wild-type 129X1/SvJ mice, 10 mg/kg per oral 1 h before 20 μg α-Me-5HT, 20 min): significant reduction of scratching bouts

CC(C)(C)OC(=O)c1ncn2c1[C@@H]1CCCN1C(=O)c1c(Br)cccc1-2 [bretazenil]
displacement of [3H]Ro 15-4513 binding [3]: dose-dependently inhibited

CC(=O)[C@H]1CC[C@H]2[C@@H]3CC[C@H]4C[C@](C)(O)CC[C@]4(C)[C@H]3CC[C@]12C [ganaxolone]
number of scratching bouts vs vehicle (chloroquine-induced itch): significant reduction in number scratching bouts

CC(N)Cc1c[nH]c2ccc(O)cc12 (stereo not drawn) [α-methyl 5-HT, α-methyl-5-hydroxy-tryptamine]
scratching behavior directed to the injected site (α-Me-5HT-induced itch; different doses injected into the right cheek, wild-type 129X1/SvJ, 30 min): dose-dependent robust scratching behavior

Reference: patent US11529359B2, “Use of GABAA receptor modulators for treatment of itch” (UNIVERSITÄT ZÜRICH, priority 2016, dated 2022)
